The text below walks through data of US20260049077A1, “Neurotrophic Receptor Tyrosine Kinase (NTRK) Inhibitors and Methods Using Same” (Baylor College of Medicine, priority 2022, published 2026).

Where two headings read alike, the source gives them in different places. A value given as a limit tells only on which side of the number the result lay.

A short description of data set [1]: Metabolic stability in mouse liver microsomes (MLM). For orientation: Liver microsomes are vesicles of endoplasmic reticulum, rich in cytochrome P450 enzymes.
Data set [2] is described as follows: Metabolic stability in human liver microsomes (HLM).
A further data set addresses NTRK2 (Homo sapiens (Human), UniProt Q16620). The data set can be described thus: NTRK2 inhibition (IC50). The class given is biochemical.
Another data set has as its target NTRK1 (Homo sapiens (Human), UniProt P04629). The data set can be described thus: NTRK1 inhibition (IC50).
The target of a further data set is NTRK3 (Homo sapiens (Human), UniProt Q16288). The experiment in a line: NTRK3 inhibition (IC50). The following applies: read-out: NTRK3 IC50.
Sequence of NTRK3 (Q16288 32-839): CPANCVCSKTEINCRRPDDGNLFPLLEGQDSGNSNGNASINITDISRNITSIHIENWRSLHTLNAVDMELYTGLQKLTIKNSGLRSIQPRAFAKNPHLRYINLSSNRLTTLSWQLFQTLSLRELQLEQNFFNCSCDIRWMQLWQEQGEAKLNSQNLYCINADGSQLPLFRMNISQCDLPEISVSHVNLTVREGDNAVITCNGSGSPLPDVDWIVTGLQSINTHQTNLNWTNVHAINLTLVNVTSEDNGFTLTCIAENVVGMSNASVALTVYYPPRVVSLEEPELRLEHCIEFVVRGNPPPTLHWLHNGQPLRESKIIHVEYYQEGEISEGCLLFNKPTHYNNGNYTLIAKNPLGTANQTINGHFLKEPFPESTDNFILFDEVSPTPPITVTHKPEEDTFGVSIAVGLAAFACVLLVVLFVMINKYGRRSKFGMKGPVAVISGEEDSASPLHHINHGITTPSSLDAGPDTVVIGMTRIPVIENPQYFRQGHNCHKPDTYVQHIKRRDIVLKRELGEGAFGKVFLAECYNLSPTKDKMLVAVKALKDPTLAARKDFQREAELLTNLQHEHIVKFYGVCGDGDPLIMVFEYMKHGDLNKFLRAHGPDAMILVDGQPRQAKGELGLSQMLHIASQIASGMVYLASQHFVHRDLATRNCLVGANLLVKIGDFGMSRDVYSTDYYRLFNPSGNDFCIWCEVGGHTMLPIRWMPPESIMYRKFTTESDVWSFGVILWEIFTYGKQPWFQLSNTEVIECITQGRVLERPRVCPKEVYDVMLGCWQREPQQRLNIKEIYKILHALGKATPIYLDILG

Usually half-life stands for how long it takes for the measured level to halve. High values mean slow decline, low ones rapid decline. The IC50 is the concentration that inhibits the measured activity by half.

Sequence of NTRK1 (P04629 33-796): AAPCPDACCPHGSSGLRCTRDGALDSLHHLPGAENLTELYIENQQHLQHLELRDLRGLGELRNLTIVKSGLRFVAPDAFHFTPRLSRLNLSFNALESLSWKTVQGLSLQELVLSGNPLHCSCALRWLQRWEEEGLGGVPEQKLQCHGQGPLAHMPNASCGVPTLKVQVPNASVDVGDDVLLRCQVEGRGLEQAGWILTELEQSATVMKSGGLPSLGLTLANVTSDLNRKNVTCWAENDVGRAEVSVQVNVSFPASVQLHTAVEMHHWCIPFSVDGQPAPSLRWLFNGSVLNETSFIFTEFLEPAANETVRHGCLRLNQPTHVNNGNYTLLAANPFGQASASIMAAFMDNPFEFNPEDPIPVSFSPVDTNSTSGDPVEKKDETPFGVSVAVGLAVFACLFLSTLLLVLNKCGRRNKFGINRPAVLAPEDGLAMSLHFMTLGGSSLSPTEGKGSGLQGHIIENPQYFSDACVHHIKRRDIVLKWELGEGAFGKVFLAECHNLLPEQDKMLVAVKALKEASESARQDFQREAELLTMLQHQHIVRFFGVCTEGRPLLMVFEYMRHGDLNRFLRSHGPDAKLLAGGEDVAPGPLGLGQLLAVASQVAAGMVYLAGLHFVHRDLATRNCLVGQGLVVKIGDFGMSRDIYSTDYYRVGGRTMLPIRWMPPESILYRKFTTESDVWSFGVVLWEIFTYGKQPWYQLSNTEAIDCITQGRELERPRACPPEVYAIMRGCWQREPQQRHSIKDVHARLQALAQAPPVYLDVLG
Sequence of NTRK2 (Q16620 32-822): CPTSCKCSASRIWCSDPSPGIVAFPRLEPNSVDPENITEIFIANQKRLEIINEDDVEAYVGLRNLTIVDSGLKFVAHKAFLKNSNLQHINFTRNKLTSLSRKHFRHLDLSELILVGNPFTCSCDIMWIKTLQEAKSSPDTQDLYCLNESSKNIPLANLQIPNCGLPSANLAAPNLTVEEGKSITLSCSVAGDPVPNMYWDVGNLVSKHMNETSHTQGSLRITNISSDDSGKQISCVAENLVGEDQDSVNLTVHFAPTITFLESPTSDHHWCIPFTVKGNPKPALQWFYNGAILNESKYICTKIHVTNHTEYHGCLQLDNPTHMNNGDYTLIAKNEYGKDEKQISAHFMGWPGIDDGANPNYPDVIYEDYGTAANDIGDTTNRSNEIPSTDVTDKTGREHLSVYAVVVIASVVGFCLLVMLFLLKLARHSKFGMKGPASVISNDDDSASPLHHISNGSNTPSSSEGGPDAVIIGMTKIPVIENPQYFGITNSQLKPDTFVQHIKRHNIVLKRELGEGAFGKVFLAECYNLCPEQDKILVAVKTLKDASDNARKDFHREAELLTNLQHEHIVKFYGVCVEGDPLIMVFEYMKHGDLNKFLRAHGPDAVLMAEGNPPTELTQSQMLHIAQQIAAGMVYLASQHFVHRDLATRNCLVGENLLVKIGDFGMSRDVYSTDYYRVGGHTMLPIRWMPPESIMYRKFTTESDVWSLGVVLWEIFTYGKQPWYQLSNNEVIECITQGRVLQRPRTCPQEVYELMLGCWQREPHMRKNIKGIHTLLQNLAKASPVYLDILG

`Cc1nnc2n1-c1ccc(Cl)cc1C(c1ccccc1)=NC2` [Alprazolam]: the figures for the half-life in data set [1] and in data set [2] were 5.83 h and 12.2 h, respectively.
For the compound `O=C(Nc1cccc(C(F)(F)F)c1)N(Cc1ccn2nccc2c1)C1CCC1` [CDD-2273, 1-cyclobutyl-1-(pyrazolo[1,5-a]pyridin-5-ylmethyl)-3-(3-(trifluoromethyl)phenyl)urea], the half-life was found to be 0.137 h in data set [1] and 0.258 h in data set [2]. On NTRK2, this compound came in with a half-inhibitory concentration (IC50) of 1320 nM.
At NTRK2, `O=C(Nc1ccc(OC(F)(F)F)cc1)N(Cc1ccn2nccc2c1)c1ccccc1` [CDD-2296, 1-phenyl-1-(pyrazolo[1,5-a]pyridin-5-ylmethyl)-3-(4-(trifluoromethoxy)phenyl)urea] displayed an IC50 of 335 nM.
Same read-out and setting: under `O=C(Nc1ccc([N+](=O)[O-])cc1)N(Cc1ccn2nccc2c1)C1CCC1` [CDD-2297, 1-cyclobutyl-3-(4-nitrophenyl)-1-(pyrazolo[1,5-a]pyridin-5-ylmethyl)urea] stands above 10000 nM.
Same read-out and setting: under `O=C(Nc1ccc(OC(F)(F)F)cc1)N(Cc1ccn2nccc2c1)C1CCCCC1` [CDD-2298, 1-cyclohexyl-1-(pyrazolo[1,5-a]pyridin-5-ylmethyl)-3-(4-(trifluoromethoxy)phenyl)urea] stands 99 nM.
On to `O=C(Nc1ccccc1OC(F)(F)F)N(Cc1ccn2nccc2c1)C1CCC1` [CDD-2300, 1-cyclobutyl-1-(pyrazolo[1,5-a]pyridin-5-ylmethyl)-3-(2-(trifluoromethoxy)phenyl)urea], for which, at NTRK2, the concentration for half-maximal inhibition (IC50) is above 10000 nM.
On the same count and under the same terms, the value for `O=C(Nc1ccc(OC(F)(F)F)cc1)N(Cc1ccn2nccc2c1)C1CCCCCC1` [CDD-2301, 1-cycloheptyl-1-(pyrazolo[1,5-a]pyridin-5-ylmethyl)-3-(4-(trifluoromethoxy)phenyl)urea] was 513 nM.
In the case of `CC(C)N(Cc1ccn2ncc(Br)c2c1)C(=O)Nc1ccc(OC(F)(F)F)cc1` [CDD-2735, 1-((3-bromopyrazolo[1,5-a]pyridin-5-yl)methyl)-1-isopropyl-3-(4-(trifluoromethoxy)phenyl)urea], the IC50 on NTRK1 (read-out: NTRK1 IC50) stood at 4.3 nM; at NTRK3, 4.4 nM; against NTRK2, 3.6 nM.
On the same counts, the results for `O=C(O)c1cnn2ccc(CN(C(=O)Nc3ccc(OC(F)(F)F)cc3)C3CC3)cc12` [CDD-2736, 5-((1-cyclopropyl-3-(4-(trifluoromethoxy)phenyl)ureido)methyl)pyrazolo[1,5-a]pyridine-3-carboxylic acid] are 4.1 nM, 3.3 nM and 2.5 nM.
`CC(C)CN(Cc1ccn2ncc(C(=O)O)c2c1)C(=O)Nc1ccc(OC(F)(F)F)cc1` [CDD-2742, 5-((1-isobutyl-3-(4-(trifluoromethoxy)phenyl)ureido)methyl)pyrazolo[1,5-a]pyridine-3-carboxylic acid]: the IC50 on NTRK1 (read-out: NTRK1 IC50) came to 104 nM; at NTRK3, 11.8 nM; at NTRK2, 5.7 nM.
On the same counts, the results for `CCC(C)N(Cc1ccn2ncc(C(=O)O)c2c1)C(=O)Nc1ccc(OC(F)(F)F)cc1` (stereo not shown) [CDD-2743, 5-((1-(sec-butyl)-3-(4-(trifluoromethoxy)phenyl)ureido)methyl)pyrazolo[1,5-a]pyridine-3-carboxylic acid] are 9.5 nM, 5.4 nM and 6 nM.
In the case of `CC[C@@H](C)N(Cc1ccn2ncc(C(N)=O)c2c1)C(=O)Nc1ccc(OC(F)(F)F)cc1` [CDD-3057, (R)-5-((1-(sec-butyl)-3-(4-(trifluoromethoxy)phenyl)ureido)methyl)pyrazolo[1,5-a]pyridine-3-carboxamide], the concentration for half-maximal inhibition (IC50) was 17.6 nM on NTRK1 (read-out: NTRK1 IC50), 6.6 nM at NTRK3 and 4 nM against NTRK2.
The matching figures for `CC[C@H](C)N(Cc1ccn2ncc(C(N)=O)c2c1)C(=O)Nc1ccc(OC(F)(F)F)cc1` [CDD-3058, (S)-5-((1-(sec-butyl)-3-(4-(trifluoromethoxy)phenyl)ureido)methyl)pyrazolo[1,5-a]pyridine-3-carboxamide]: 11.7 nM, 8.4 nM and 3.7 nM.
In the case of `CN(C)C(=O)[C@H](Cc1cccc([N+](=O)[O-])c1)NC(=O)Nc1c(Cl)cccc1C(F)(F)F` [CDD-3099, (S)-2-(3-(2-chloro-6-(trifluoromethyl)phenyl)ureido)-N,N-dimethyl-3-(3-nitrophenyl)propanamide], the figures for the IC50 on NTRK1 and at NTRK2 were 39600 nM and 47400 nM, respectively.
As for `CNC(=O)[C@@H](Cc1ccc([N+](=O)[O-])cc1)NC(=O)Nc1ccc(Oc2ccccc2)cc1` [CDD-3100, (R)-N-methyl-3-(4-nitrophenyl)-2-(3-(4-phenoxyphenyl)ureido)propanamide], the concentration for half-maximal inhibition (IC50) was found to be 26300 nM at NTRK1 (read-out: NTRK1 IC50) and 37200 nM against NTRK2.
On the same counts, the results for `CC(C)c1ccc(OCC(=O)N(C)Cc2ccn3ncc(C(N)=O)c3c2)cc1` [CDD-3120, 5-((2-(4-isopropylphenoxy)-N-methylacetamido)methyl)pyrazolo[1,5-a]pyridine-3-carboxamide] are 1780 nM and 242 nM.
On the same counts, the results for `CN(Cc1ccn2ncc(C(N)=O)c2c1)C(=O)CCc1ccc(OC(F)(F)F)cc1` [CDD-3121, 5-((N-methyl-3-(4-(trifluoromethoxy)phenyl)propanamido)methyl)pyrazolo[1,5-a]pyridine-3-carboxamide] are 11600 nM and 3240 nM.
For `CC(C)c1ccc(OCC(=O)NCc2ccn3ncc(C(N)=O)c3c2)cc1` [CDD-3129, 5-((2-(4-isopropylphenoxy)acetamido)methyl)pyrazolo[1,5-a]pyridine-3-carboxamide], the IC50 at NTRK1 (read-out: NTRK1 IC50) came out at 9540 nM; against NTRK2, 3760 nM.
On the same counts, the results for `NC(=O)c1cnn2ccc(CNC(=O)Nc3ccc(OC(F)(F)F)cc3)cc12` [CDD-3130, 5-((3-(4-(trifluoromethoxy)phenyl)ureido)methyl)pyrazolo[1,5-a]pyridine-3-carboxamide] are 9200 nM and 1260 nM.
On the same counts, the results for `CN(Cc1ccn2ncc(C(N)=O)c2c1)C(=O)COc1ccc(C(F)(F)F)cc1` [CDD-3181, 5-((N-methyl-2-(4-(trifluoromethyl)phenoxy)acetamido)methyl)pyrazolo[1,5-a]pyridine-3-carboxamide] are 6720 nM and 1060 nM.
The matching figures for `CN(Cc1ccn2ncc(C(N)=O)c2c1)C(=O)COc1cccc(OC(F)(F)F)c1` [CDD-3182, 5-((N-methyl-2-(3-(trifluoromethoxy)phenoxy)acetamido)methyl)pyrazolo[1,5-a]pyridine-3-carboxamide]: 4060 nM and 354 nM.
Regarding `CN(Cc1ccn2ncc(C(N)=O)c2c1)C(=O)COc1ccc(C(C)(C)C)cc1` [CDD-3183, 5-((2-(4-(tert-butyl)phenoxy)-N-methylacetamido)methyl)pyrazolo[1,5-a]pyridine-3-carboxamide], the IC50 at NTRK1 (read-out: NTRK1 IC50) is 3610 nM; against NTRK2, 247 nM.
As for `CN(Cc1ccn2ncc(C(N)=O)c2c1)C(=O)CN(C)c1ccc(C(C)(C)C)cc1` [CDD-3185, 5-((2-((4-(tert-butyl)phenyl)(methyl)amino)-N-methylacetamido)methyl)pyrazolo[1,5-a]pyridine-3-carboxamide], the IC50 at NTRK1 (read-out: NTRK1 IC50) came out at 10900 nM; against NTRK2, 1750 nM.
For `CC(C)N(Cc1ccc2[nH]ccc2c1)C(=O)COc1ccc(OC(F)(F)F)cc1` [CDD-3264, N-((1H-indol-5-yl)methyl)-N-isopropyl-2-(4-(trifluoromethoxy)phenoxy)acetamide], the results for the concentration for half-maximal inhibition (IC50) on NTRK1 (read-out: NTRK1 IC50), on NTRK3 and against NTRK2 were 43900 nM, 21800 nM and 2090 nM, respectively.
Consider `CC(C)N(Cc1ccc2[nH]ccc2c1)C(=O)Nc1ccc(OC(F)(F)F)cc1` [CDD-3265, 1-((1H-indol-5-yl)methyl)-1-isopropyl-3-(4-(trifluoromethoxy)phenyl)urea], for which the values for the 50% inhibitory concentration (IC50) at NTRK1 (read-out: NTRK1 IC50), on NTRK3 and against NTRK2 were 50100 nM, 55100 nM and 53700 nM, respectively.
Take `CC(C)N(Cc1ccn2nccc2c1)C(=O)CNc1ccc(C(C)(C)C)nc1` [CDD-3306, 2-((6-(tert-butyl)pyridin-3-yl)amino)-N-isopropyl-N-(pyrazolo[1,5-a]pyridin-5-ylmethyl)acetamide]: the figures for the half-maximal inhibitory concentration (IC50) at NTRK1 (read-out: NTRK1 IC50), on NTRK3 and against NTRK2 were 2410 nM, 4770 nM and 1130 nM, respectively.
Regarding `CC(C)N(Cc1ccn2nccc2c1)C(=O)CNc1ccc(C2(C(F)(F)F)CC2)cc1` [CDD-3307, N-isopropyl-N-(pyrazolo[1,5-a]pyridin-5-ylmethyl)-2-((4-(1-(trifluoromethyl)cyclopropyl)phenyl)amino)acetamide], the half-maximal inhibitory concentration (IC50) at NTRK1 (read-out: NTRK1 IC50) was determined as 2170 nM; at NTRK3, 922 nM; against NTRK2, 414 nM.
`CN(Cc1ccn2ncc(C(N)=O)c2c1)S(=O)(=O)Nc1ccc(OC(F)(F)F)cc1` [CDD-3308, 5-((methyl(N-(4-(trifluoromethoxy)phenyl)sulfamoyl)amino)methyl)pyrazolo[1,5-a]pyridine-3-carboxamide]: the 50% inhibitory concentration (IC50) at NTRK1 (read-out: NTRK1 IC50) turned out to be 28400 nM; at NTRK3 it was 4320 nM; against NTRK2, 4440 nM.
On to `C[C@H]1CNC(=O)c2cnn3ccc(nc23)N[C@H](C)c2cc(F)ccc2O1` [Reprotrectinib, (3R,11S)-6-fluoro-3,11-dimethyl-10-oxa-2,13,17,18,21-pentazatetracyclo[13.5.2.04,9.018,22]docosa-1(21),4(9),5,7,15(22).16,19-heptaen-14-one, reference compound], for which the “MLM t1/2” value in data set [1] was found to be 2.78 h. For the same compound, in data set [2], the “HLM t1/2” value was found to be 4.23 h.
Turning to `C[C@@H]1CCc2ncc(F)cc2[C@H]2CCCN2c2ccn3ncc(c3n2)C(=O)N1` [Selitrectinib, (6R,15R)-9-fluoro-15-methyl-2,11,16,20,21,24-hexazapentacyclo[16.5.2.02,6.07,12.021,25]pentacosa-1(24),7(12),8,10,18(25),19,22-heptaen-17-one, reference compound], the half-life was 0.533 h in data set [1] and 4.07 h in data set [2].
